In patent US7902254B1, “Method for treating conditions mediated by PPAR using macelignan” (Newtree Co., Ltd., priority 2005, dated 2011):

Key:
[1] = test system: obesity/diabetes mice (db/db mice); experiment: Effect upon fatty liver in obesity/diabetes mouse model; format: in vivo; conditions: 25 mg/kg oral, 14 days
Protocol: To investigate effects of macelignan upon the prevention and treatment of fatty liver, seven mice of 10 week-aged obesity/diabetes mice (db/db mice) were used per test group. To the test groups, macelignan suspended in 0.25% carboxymethyl cellulose was orally administered in an administration dose of 5 mg/kg (body weight), 10 mg/kg (body weight) and 25 mg/kg (body weight), once per day at a predetermined time, for 14 days in all. As a control, 0.25% carboxymethyl cellulose was orally administered alone to normal mice in the same dose as administered to the test group. As another control, 0.25% carboxymethyl cellulose was orally administered alone to obesity/diabetes mice in the same dose as administered to the test group. As still another control, 10 mg/kg (body weight) of troglitazone was orally administered. Fourteen days after the oral administration, the liver tissue was isolated and crushed to extract the total lipid and fat contents, and then the triglyceride content accumulated in the liver tissue was measured.

[2] = target: T1, human PPARα (Homo sapiens, UniProt Q07869); experiment: PPARα activation, PPRE-controlled luciferase reporter in transfected COS-7 cells; format: cell-based; conditions: 24 hours
T1 construct: expressed in transfected cells; host or cells: COS-7 monkey kidney cells (ATCC CRL-1651)
T1 sequence (Q07869 192-468 limits assumed): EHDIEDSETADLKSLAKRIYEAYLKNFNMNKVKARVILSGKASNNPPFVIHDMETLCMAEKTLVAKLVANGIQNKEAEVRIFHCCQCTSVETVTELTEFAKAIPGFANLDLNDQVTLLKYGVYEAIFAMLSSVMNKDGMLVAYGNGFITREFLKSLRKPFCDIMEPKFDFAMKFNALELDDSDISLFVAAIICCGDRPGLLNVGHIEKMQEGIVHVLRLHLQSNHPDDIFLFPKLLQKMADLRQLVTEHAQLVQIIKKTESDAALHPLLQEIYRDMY
Protocol: To investigate whether macelignan acts as a ligand of PPAR or not, it was tested according to known method (Cell, 68: 879-887, 1992; J. Biol. Chem., 272: 25252-25259, 1997) using a plasmid expressing PPAR and a vector having PPRE-controlled luciferase genes.
Activation of luciferase expression was measured by transfecting COS-7 monkey kidney cells (ATCC CRL-1651) with the PPARα plasmid and pFR-luciferase vector (Stratagene, USA), and then by treating the transfected cells with macelignan isolated from Example 1 for 24 hours. The PPARα plasmid was obtained by isolating polynucleotide encoding the amino acid sequence of amino acids […] (i.e. PPARα ligand-bound domain of the total amino acid sequence of human PPARα (Genbank Acession No. S74349)) with the primers of SEQ ID NO: 1 ([…]) and SEQ ID NO: 2 (TGGGGTACCTGGCTGAT) by RT-PCR. Then, the polynucleotide was cloned between the restriction enzyme sites of BamHI and KpnI of pFA vector (Stratagene, USA). Herein, mRNA used as the template in RT-PCR was obtained by separating the total RNA in cultured Hep G2 (ATCC HB-8065) human liver cells by using TRIZOL (Invitrogen, USA). RT-PCR was performed by synthesizing cDNA using reverse transcriptase at 42° C. for 60 minutes, and 30 cycles of 1 minute at 95° C., 30 seconds at 54° C. and 2 minutes at 72° C. using Taq polymerase. At this time, the test groups treated with different concentrations (1, 5, 10 and 25 μM) of macelignan according to the present invention were compared to the control treated with 0.01% DMSO, and to the groups treated with different concentrations (1, 5, 10 and 25 μM) of Wy-14643 (Sigma, USA), a compound known as a PPARα ligand.

[3] = Oral toxicity test; conditions: rat, in vivo; oral administration, rats; read-out: lethal dose 50% (LD50)
[4] = test system: obesity/diabetes mice (db/db mice); experiment: Anti-diabetes effect in obesity/diabetes mouse model; format: in vivo; conditions: for OGTT blood sugar: 12th day; for blood sugar level: 14 days; for blood sugar level / Adiponectin concentration in blood / Insulin concentration in blood: db/db mice; for Adiponectin concentration in blood / Insulin concentration in blood: 14th day
Excerpt: A mouse (db/db mouse; The Jackson Laboratory, USA) used in the present invention as an obesity/diabetes model is deficient in leptin genes and cannot control its appetite, and thus takes an excessive amount of food continuously. […] Thus, it can be a typical model of obesity and metabolic diseases. Additionally, it has a higher blood sugar level and can be a typical model of non-insulin-dependent diabetes mellitus. To investigate the effect of preventing and treating diabetes of macelignan, seven mice of 10 week-aged obesity/diabetes mice (db/db mice) were used per test group. To the test groups, macelignan suspended in 0.25% carboxymethyl cellulose was orally administered with the dose of 5 mg/kg (body weight), 10 mg/kg (body weight) and 25 mg/kg (body weight), once per day at a predetermined time, for 14 days. As a control, 0.25% carboxymethyl cellulose was orally administered alone to normal mice in the same dose as administered to the test group. As another control, 0.25% carboxymethyl cellulose was orally administered alone to obesity/diabetes mice in the same dose as administered to the test group. As still another control, 10 mg/kg (body weight) of troglitazone was orally administered. Blood sugar levels of the obesity/diabetes mice were determined from six days before the administration, once per three days. On the 12th day after the oral administration, the test group and the controls were subjected to the Oral Glucose Tolerance Test (OGTT). For this test, obesity/diabetes mice in the test group and the controls were fasted for at least 18 hours, glucose was orally administered to the mice in a dose of 3 g/kg (body weight), and then variations in the blood sugar were measured at 0 minutes, 30 minutes, 60 minutes and 120 minutes after the glucose administration. Additionally, on the 14th day of the oral administration, the final blood sugar level, insulin content in blood (mouse insulin ELISA Kit, Linco Research, o. EZRMI-BK, USA) and adiponectin content in blood (Adiponectin Quantikine ELISA Kit, R&D systems, No. MRP300, USA) were analyzed.

In the case of `COc1cc(C[C@H](C)[C@H](C)Cc2ccc3c(c2)OCO3)ccc1O` (single isomer, unassigned) [macelignan], the “triglyceride content in the liver tissue” value [1] is reported as 6.30 ± 11.59 mg/g, the “luciferase activity higher than the control (PPARα)” value ([2]; 25 μM, control 0.01% DMSO) is reported as “about 14 times” and the PPARα activity ([2]; 1, 5, 10 and 25 μM, p<0.01 vs control) is reported as “increased PPARα activity in a concentration-dependent manner”. For the same compound, the LD50 [3] was at least 2000 mg/kg, the OGTT blood sugar ([4]; 0 min. after glucose 3 g/kg, 5 mg/kg oral) was 379.14 ± 26.23 mg/dL and the OGTT blood sugar ([4]; 0 min. after glucose 3 g/kg, 10 mg/kg oral) was 313.86 ± 51.40 mg/dL. For the same compound, the OGTT blood sugar ([4]; 0 min. after glucose 3 g/kg, 25 mg/kg oral) was 319.14 ± 35.25 mg/dL, the blood sugar level ([4]; 5 mg/kg oral once per day) was 552.84 ± 47.95 mg/dL and the “Adiponectin concentration in blood” value ([4]; 5 mg/kg oral) was 5111.14 ± 925.88 ng/mL. For the same compound, the “Insulin concentration in blood” value ([4]; 5 mg/kg oral) was 26.33 ± 10.78 ng/mL, the blood sugar level ([4]; 10 mg/kg oral once per day) was 501.03 ± 43.67 mg/dL and the “Adiponectin concentration in blood” value ([4]; 10 mg/kg oral) was 6882.86 ± 250.05 ng/mL. The “Insulin concentration in blood” value ([4]; 10 mg/kg oral) was 16.66 ± 7.03 ng/mL, the blood sugar level ([4]; 25 mg/kg oral once per day) was 412.74 ± 31.15 mg/dL and the “Adiponectin concentration in blood” value ([4]; 25 mg/kg oral) was 7864.00 ± 808.21 ng/mL. For the same compound, the “Insulin concentration in blood” value ([4]; 25 mg/kg oral) was 8.51 ± 3.67 ng/mL, the OGTT blood sugar ([4]; 30 mins. after glucose 3 g/kg, 5 mg/kg oral) was 636.85 ± 63.29 mg/dL and the OGTT blood sugar ([4]; 30 mins. after glucose 3 g/kg, 10 mg/kg oral) was 670.14 ± 94.20 mg/dL. It also gave an OGTT blood sugar ([4]; 30 mins. after glucose 3 g/kg, 25 mg/kg oral) of 580.00 ± 101.37 mg/dL, an OGTT blood sugar ([4]; 60 mins. after glucose 3 g/kg, 5 mg/kg oral) of 613.38 ± 24.36 mg/dL and an OGTT blood sugar ([4]; 60 mins. after glucose 3 g/kg, 10 mg/kg oral) of 593.11 ± 27.15 mg/dL. For the same compound, the OGTT blood sugar ([4]; 60 mins. after glucose 3 g/kg, 25 mg/kg oral) was 509.70 ± 27.71 mg/dL, the OGTT blood sugar ([4]; 120 mins. after glucose 3 g/kg, 5 mg/kg oral) was 564.21 ± 29.86 mg/dL and the OGTT blood sugar ([4]; 120 mins. after glucose 3 g/kg, 10 mg/kg oral) was 529.46 ± 17.55 mg/dL. The OGTT blood sugar ([4]; 120 mins. after glucose 3 g/kg, 25 mg/kg oral) was 431.21 ± 59.18 mg/dL.
